Laboratory results as given in patent US8299074B2, “P38 MAP kinase inhibitors” (RespiVert Ltd., priority 2008, dated 2012).
Where two headings read alike, the source gives them in different places.

Tests used:
[1] = test system: p38 MAPKs or JNKs; conditions: Kuma, Y. (2005); cited from earlier work
[2] = test system: THP-1 cells; test: LPS-induced TNF alpha release in THP-1 cells; assay type: cell-based; conditions: Homo sapiens, THP-1, read-out: THP-1 (LPS) TNFα IC50
Method: LPS-Induced TNF Alpha Release in THP-1 Cells: Potency […] Coli; O111:B4, Sigma) for 4 hr and the supernatant collected for determination of TNFα concentration by sandwich ELISA (Duo-set, R&D systems). The inhibition of TNFα production was calculated at each concentration by comparison with vehicle control.

[3] = test system: mice; test: LPS-induced neutrophils accumulation in mice; assay type: in vivo
[4] = target: T1, p38 MAPK alpha (MAPK14) (Homo sapiens, UniProt Q16539); test: Enzyme inhibition assay, p38 MAPK alpha (FRET, Z-LYTE, via MAPKAP-K2); assay type: biochemical; conditions: read-out: Enzyme p38α IC50
T1 construct: purchased Invitrogen

[5] = test system: U937 cells; test: LPS-induced TNF alpha release in U937 cells; assay type: cell-based; conditions: Homo sapiens; read-out: DU937 (LPS) TNFα REC50
Procedure, shortened: (§1)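 U937 cells differentiated with PMA (100 ng/ml) for 48 to 72 hours, pre-treated with compound for 2 hrs, then stimulated with E. coli O111:B4 LPS for 4 hrs. Supernatant TNFα and IL-8 measured by sandwich ELISA; inhibition at each concentration versus vehicle control.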

[6] = test system: Differentiated U937 cells; test: MTT assay (cell viability); assay type: cell-based, human
Procedure, shortened: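 Differentiated U937 cells pre-incubated with compound 4 h in 5% FCS or 24 h in 10% FCS; MTT read at 550 nm after DMSO solubilisation. Percentage loss of viability relative to 0.5% DMSO vehicle; apparent increases appear as negative percentages.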

[7] = test system: BEAS2B cells; test: Poly I:C-induced ICAM-1 induction in BEAS2B cells; assay type: cell-based; conditions: Homo sapiens, BEAS-2B, read-out: BEAS2B (polyIC) ICAM1 IC50
Procedure, shortened: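 Poly I:C (1 ug/ml) transfected into BEAS2B cells after 2 h compound pre-incubation. Surface ICAM-1 measured by cell-based ELISA 18 h post-transfection (HRP, OD450–655), corrected for cell number by OD595.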

[8] = test system: U937 cells; test: LPS-induced IL-8 release in U937 cells; assay type: cell-based; conditions: Homo sapiens, read-out: DU937 (LPS) IL-8 IC50
Procedure, shortened: as §1

[9] = test system: A/J mice; test: Cigarette smoke model; assay type: in vivo; conditions: 50 μg/mL (35 μl, bid) intra-nasally, cigarette smoke exposed mice
Method: Cigarette Smoke Model A/J mice (males, 5 weeks old) were exposed to cigarette smoke (4% cigarette smoke, diluted with compressed air) for 30 min/day for 11 days using a Tobacco Smoke Inhalation Experiment System for small animals (Model SIS-CS; Sibata Scientific Technology, Tokyo, Japan). Test substances were given intra-nasally (35 μL of solution in 50% DMSO/PBS) and therapeutically twice daily for 3 days after the final cigarette smoke exposure. Twelve hours after the last dosing, animals were anesthetized, the trachea cannulated and bronchoalveolar lavage fluid (BALF) was collected.

[10] = test system: Dunkin-Hartley guinea-pigs; test: Ovalbumin challenge/parainfluenza infection model; assay type: in vivo; conditions: nebulised 1.5 mg per day; sensitized animals treated with PIV3 medium; initial studies
[11] = Table 3, first MTT column, loss of cell viability at 1 μg/ml
[12] = Table 3, second MTT column, loss of cell viability at 1 μg/ml
[13] = Table 1, MTT, loss of cell viability at 1 μg/ml
[14] = Table 1, first MTT column, loss of cell viability at 1 μg/ml

T1 sequence (Q16539 whole entry): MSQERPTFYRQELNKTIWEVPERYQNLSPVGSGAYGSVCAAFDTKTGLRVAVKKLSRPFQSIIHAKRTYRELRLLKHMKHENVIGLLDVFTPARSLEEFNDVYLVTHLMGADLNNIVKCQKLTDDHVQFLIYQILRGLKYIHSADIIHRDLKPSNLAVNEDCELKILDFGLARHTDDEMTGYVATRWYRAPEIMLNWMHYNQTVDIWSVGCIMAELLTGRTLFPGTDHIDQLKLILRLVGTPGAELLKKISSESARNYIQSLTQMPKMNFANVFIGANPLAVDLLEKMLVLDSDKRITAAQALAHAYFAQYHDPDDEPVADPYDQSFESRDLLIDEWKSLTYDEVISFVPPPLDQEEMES

SMILES	IC50 ([2]; Table 3) [µM]	IC50 ([4]; Table 3) [µM]	EC50 [5] [µM]	DU937 (cell viability) MTT assay 4 h [6, 11]	DU937 (cell viability) MTT assay 4 h [6, 12]	IC50 ([7]; Table 3) [µM]	IC50 ([8]; Table 3) [µM]	IC50 ([2]; Table 1) [µM]	IC50 ([4]; Table 1) [µM]	IC50 ([7]; Table 1) [µM]	IC50 ([8]; Table 1) [µM]	other results
Cc1ccc(-n2nc(C(C)(C)C)cc2NC(=O)Nc2ccc(OCCN3CCOCC3)c3ccccc23)cc1 [BIRB 796]	–	–	–	–	–	–	–	–	–	–	–	phosphorylation of p38 MAPKs or JNKs by the upstream kinase MKK6 or MKK4 [1]: impaired the phosphorylation of p38 MAPKs or JNKs
Cc1ccc(-n2nc(C(C)(C)C)cc2NC(=O)Nc2ccc(Oc3ccnc(NC(=O)N4CCOCC4)c3)c3ccccc23)cc1 [Example 42, N-(4-(4-(3-(3-tert-Butyl-1-p-tolyl-1H-pyrazol-5-yl)ureido)naphthalen-1-yloxy)pyridin-2-yl)morpholine-4-carboxamide]	< 0.01	< 5	< 0.01	− (<=30%)	− (<=30%)	< 0.01	< 5	–	–	–	–	Neutrophil numbers in BAL ([3]; 0.2 mg/ml intra tracheal, 8 hr pre-dose, BALF 8 h after LPS, mean ± SEM, n = 8): 8.60 ± 1.59 ×10^5/mL
Cc1ccc(-n2nc(C(C)(C)C)cc2NC(=O)Nc2ccc(Oc3ccnc(NC(=O)NCCCn4ccnc4)c3)c3ccccc23)cc1 [Example 52, N-(3-(Imidazol-1-yl)propyl)-N′-4-(4-(3-(3-tert-butyl-1-p-tolyl-1H-pyrazol-5-yl)ureido)naphthalen-1-yloxy)pyridin-2-ylurea]	< 0.01	< 5	< 0.01	− (<=30%)	− (<=30%)	< 0.01	< 0.01	–	–	–	–	–
Cc1ccc(-n2nc(C(C)(C)C)cc2NC(=O)Nc2ccc(Oc3ccnc(NC(=O)NCC(=O)N4CCCC4)c3)c3ccccc23)cc1 [Example 53, N-(2-(3-(4-(4-(3-(3-tert-Butyl-1-p-tolyl-1H-pyrazol-5-yl)ureido)naphthalen-1-yloxy)pyridin-2-yl)ureido)acetyl)pyrrolidine]	< 0.01	< 0.01	< 0.01	− (<=30%)	− (<=30%)	< 0.01	< 5	–	–	–	–	–
Cc1ccc(-n2nc(C(C)(C)C)cc2NC(=O)Nc2ccc(Oc3ccnc(NC(=O)N4CC[C@@H](N(C)C)C4)c3)c3ccccc23)cc1 [Example 54, (R)—N-(4-(4-(3-(3-tert-Butyl-1-p-tolyl-1H-pyrazol-5-yl)ureido)naphthalen-1-yloxy)pyridin-2-yl)-3-(dimethylamino)pyrrolidine-1-carboxamide]	< 0.01	< 0.01	< 0.01	− (<=30%)	− (<=30%)	< 0.01	< 0.01	–	–	–	–	–
Cc1ccc(-n2nc(C(C)(C)C)cc2NC(=O)Nc2ccc(Oc3ccnc(NC(=O)N4CCCC4)c3)c3ccccc23)cc1 [Example 55, N-(4-(4-(3-(3-tert-Butyl-1-p-tolyl-1H-pyrazol-5-yl)ureido)naphthalen-1-yloxy)pyridin-2-yl)pyrrolidine-1-carboxamide]	< 0.01	< 0.01	< 0.01	− (<=30%)	− (<=30%)	< 0.01	< 0.01	–	–	–	–	–
Cc1ccc(-n2nc(C(C)(C)C)cc2NC(=O)Nc2ccc(Oc3ccnc(NC(=O)NCC(=O)NCCN4CCOCC4)c3)c3ccccc23)cc1 [Example 57, 2-(3-(4-(4-(3-(3-tert-Butyl-1-p-tolyl-1H-pyrazol-5-yl)ureido)naphthalen-1-yloxy)pyridin-2-yl)ureido)-N-(2-morpholinoethyl)acetamide]	< 0.01	< 0.01	< 5	− (<=30%)	− (<=30%)	< 5	< 5	–	–	–	–	–
Cc1ccc(-n2nc(C(C)(C)C)cc2NC(=O)Nc2ccc(Oc3ccnc(NC(=O)NCC(=O)N4CCN(C)CC4)c3)c3ccccc23)cc1 [Example 61, 1-(2-(3-(4-(4-(3-(3-tert-Butyl-1-p-tolyl-1H-pyrazol-5-yl)ureido)naphthalen-1-yloxy)pyridin-2-yl)ureido)acetyl)-4-methylpiperazine]	< 0.01	< 0.01	< 0.01	− (<=30%)	− (<=30%)	< 0.01	< 0.01	–	–	–	–	–
COCCNC(=O)CNC(=O)Nc1cc(Oc2ccc(NC(=O)Nc3cc(C(C)(C)C)nn3-c3ccc(C)cc3)c3ccccc23)ccn1 [Example 62]	< 0.01	< 0.01	< 0.01	− (<=30%)	− (<=30%)	< 0.01	< 0.01	–	–	–	–	–
COCC(=O)Nc1cc(Oc2ccc(NC(=O)Nc3cc(C(C)(C)C)nn3-c3ccc(C)cc3)c3ccccc23)ncn1 [Example 63, N-(6-(4-(3-(3-tert-Butyl-1-p-tolyl-1H-pyrazol-5-yl)ureido)naphthalen-1-yloxy)pyrimidin-4-yl)-2-methoxyacetamide]	–	–	< 0.01	–	–	–	–	< 0.01	< 0.01	< 5	< 0.01	DU937 (cell viability) MTT assay 4 h ([6]; Table 1, MTT, loss of cell viability, test conducted at 10 μg/ml): +^$ (>30%); DU937 (cell viability) MTT assay 4 h ([6]; Table 1, first MTT column, loss of cell viability, test conducted at 10 μg/ml): −^$ (<=30%)
COCC(=O)Nc1nccc(Oc2ccc(NC(=O)Nc3cc(C(C)(C)C)nn3-c3ccc(C)cc3)c3ccccc23)n1 [Example 65, N-(4-(4-(3-(3-tert-Butyl-1-p-tolyl-1H-pyrazol-5-yl)ureido)naphthalen-1-yloxy)pyrimidin-2-yl)-2-methoxyacetamide]	–	–	< 0.01	–	–	–	–	< 0.01	< 5	< 5	< 5	DU937 (cell viability) MTT assay 4 h [6, 13]: − (<=30%); DU937 (cell viability) MTT assay 4 h [6, 14]: − (<=30%)
Cc1ccc(-n2nc(C(C)(C)C)cc2NC(=O)Nc2ccc(Oc3ccnc(NC(N)=O)n3)c3ccccc23)cc1 [Example 66, 3-(4-(4-(3-(3-tert-Butyl-1-p-tolyl-1H-pyrazol-5-yl)ureido)naphthalen-1-yloxy)pyrimidin-2-yl)urea]	–	–	< 0.01	–	–	–	–	< 0.01	< 5	< 5	< 0.01	DU937 (cell viability) MTT assay 4 h [6, 13]: − (<=30%); DU937 (cell viability) MTT assay 4 h [6, 14]: − (<=30%)
CNC(=O)Nc1nccc(Oc2ccc(NC(=O)Nc3cc(C(C)(C)C)nn3-c3ccc(C)cc3)c3ccccc23)n1 [Example 67, 1-Methyl-3-(4-(4-(3-(3-tert-butyl-1-p-tolyl-1H-pyrazol-5-yl)ureido)naphthalen-1-yloxy)pyrimidin-2-yl)urea]	–	–	< 0.01	–	–	–	–	< 0.01	< 5	< 5	< 0.01	DU937 (cell viability) MTT assay 4 h [6, 13]: − (<=30%); DU937 (cell viability) MTT assay 4 h [6, 14]: − (<=30%)
Cc1ccc(-n2nc(C(C)(C)C)cc2NC(=O)Nc2ccc(Oc3ccnc(NC(=O)N(C)C)n3)c3ccccc23)cc1 [Example 68, 1,1-Dimethyl-3-(4-(4-(3-(3-tert-butyl-1-p-tolyl-1H-pyrazol-5-yl)ureido)naphthalen-1-yloxy)pyrimidin-2-yl)urea]	–	–	< 0.01	–	–	–	–	< 5	< 0.01	< 0.01	< 0.01	DU937 (cell viability) MTT assay 4 h [6, 13]: − (<=30%); DU937 (cell viability) MTT assay 4 h [6, 14]: − (<=30%)
CCC(=O)O[C@]1(C(=O)SCF)[C@H](C)C[C@H]2[C@@H]3C[C@H](F)C4=CC(=O)C=C[C@]4(C)[C@@]3(F)[C@@H](O)C[C@@]21C [fluticasone propionate]	–	–	–	–	–	–	–	–	–	–	–	macrophage accumulation into airways [9]: did not inhibit; neutrophil accumulation into airways [9]: did not inhibit; inhibition of LPS-induced neutrophil accumulation ([3]; 50 μg/mL (35 μl, bid)): > 80%; ovalbumin-mediated lung function changes [10]: inhibited ovalbumin-mediated lung function changes
